This is an account of results in US12697335B2, “Method for treating immune toxicities induced by immune checkpoint inhibitors” (ASSISTANCE PUBLIQUE—HÔPITAUX DE PARIS, priority 2020, dated 2026).

A short description of data set [1]: Eleven ICI patients with irAE treated with ruxolitinib in combination with corticosteroids and abatacept.
For data set [2] the following is noted: human, in vivo; cited from earlier work.
Data set [3] is described as follows: Adverse events on nivolumab second-line therapy for metastatic pulmonary adenocarcinoma. In kind it is in vivo, human. Conditions: after 2 treatments with nivolumab (4 weeks after treatment initiation). The source says: Myositis was suspected due to increased creatine kinase levels and confirmed by muscle biopsy. Myocarditis was confirmed with troponin increase, premature ventricular contractions and deterioration of left-ventricular ejection fraction with no signs of acute coronary syndrome on angiogram.

Regarding `N#CC[C@H](C1CCCC1)n1cc(-c2ncnc3[nH]ccc23)cn1` [Ruxolitinib, (3R)-3-Cyclopentyl-3-[4-(7H-pyrrolo[2,3-d]pyrimidin-4-yl)pyrazol-1-yl]propanenitrile], where the note is “human, in vivo”, the “effect on tumor progression” value is “no effect” and the tumor progression entry is given as “no evidence of tumor progression”. Further, the relief of myotoxicity result (oral ruxolitinib, summary of the case) was “symptomatic relief”. The oculomotor disorders result (person, ruxolitinib 15 mg twice daily) is given as “improvement”. Also, the troponin entry (person, ruxolitinib 15 mg twice daily, corticosteroids tapered) is “prompt decrease”. Besides, the myotoxicity outcome (ruxolitinib continued for 1 month at 15 mg twice daily) was “complete resolution”. In addition, the “deaths not related to irAE (hemorrhagic choc n=1; COVID19 n=2)” value in data set [1] (first 3 months follow-up, 11 patients) is listed as “three”. Moreover, the “evolution of concurrent irAE” value in data set [1] (first 3 months follow-up, 11 patients, myasthenia like symptoms, hepatitis, thyroiditis) is given as “evolved favorably”. The “death related to an irAE” value in data set [1] (human, in vivo) is recorded as “no death”.

abatacept: the “effect in patients with myotoxicity” value in data set [2] is reported as “positive effect”.

For “nivolumab: PD-1 inhibitor: IgG4 PD1 antibody”, the adverse events developed result in data set [3] is “developed myalgia, diplopia and bilateral ptosis”.
